Patent US8236756B2, “Prodrugs cleavable by CD26” (Consejo Superior de Investigaciones Clentificas (CSIC), priority 2003, dated 2012)

Target: T1, purified CD26 (Homo sapiens, UniProt P27487)
T1 construct: made in house
Assay: Conversion of peptide prodrugs to parent compound by purified CD26 (HPLC)
Type: biochemical
Details: for Conversion % to parent compound by purified CD26, 1 h / Conversion % to parent compound by purified CD26, 4 h / Conversion % to parent compound by purified CD26, 24 h: Table 1
Protocol: To reveal whether CD26 recognizes such synthetic di/tripeptide derivatives of lipophilic nucleoside analogues as a substrate, 50 μM CAM-405 or CAM-431 was exposed to 5.7 mUnits of purified CD26, and the conversion of CAM-405 or CAM-431 to respectively CAM-212 or CAM-403 (Val-NAP-TSAO) was recorded in function of incubation time by HPLC analysis. […] Within the first 10 min of the reaction, at least 20% of CAM-405 had been converted to CAM-212, fifty percent of the TSAO dipeptide derivative was converted to CAM-212 within 30 min of the reaction and ˜67% of CAM-405 was hydrolyse after 60 min. Thus, the reaction rate started already to slow down after the first 10 min of drug exposure (FIG. 2). Most likely, the release of the reaction product Val-Pro dose-dependently feed-back inhibited the CD26-catalysed dipeptidyl-peptidase reaction. […] Thus, in the presence of 50 μM CAM-405, hydrolysis of 50% of CAM-405 to CAM-212 results in the appearance of 25 μM Val-Pro, that is a concentration that (feed-back) inhibits the CD26 reaction by ˜50%. These findings explain why the CD26-catalysed reaction levels-off shortly after the start of the exposure of the drug to CD26. […] Thus, a further level of modulation of the rate of prodrug release can be introduced by choosing a dipeptide moiety that competes for the active site of CD26, until the dipeptide has diffused from the tissue wherein CD26 is present. The inhibitory activity of any dipeptide can be evaluated by the above mentioned assay.
The conversion rate in function of time is given in Table 1 for NAP-TSAO-dipeptides where the dipeptide consists of: Val-Pro, Val-D-Pro, Asp-Pro, Lys-Pro, Tyr-Pro, Gly-Pro, Val-4-hydroxyPro, Gly-3,4-dihydroxyPro, but also Val-Gly, Val-Ala, Val-Leu and Val-Phe. It is clear that the conversion rate to the parent NAP-TSAO differs depending the nature of the dipeptide. Also, when the terminal amine of the dipeptide has been blocked by a lipophilic group (i.e. methyl, Z or Fmoc), the prodrug looses measurable substrate activity for CD26.
The conversion rate in function of time is given in Table 2 for tetrapeptide NAP-TSAO compounds where the tetrapeptide consists of: Val-Pro-Val-Pro [SEQ ID no:6] (CAM 467), Val-Ala-Val-Pro [SEQ ID no:7] (CAM 473) or Lys-Pro-Asp-Pro [SEQ ID no:8] (CAM 477). […] Only traces of dipeptide prodrug (CAM 405) is seen as intermediate in the conversion of the tetrapeptide CAM 473 to NAP-TSAO.
All enzyme activity assays were performed in Eppendorf tubes on a heating block at 37° C. To each tube were added 32 μl CD26 (at a final concentration of 1.5 milliUnits) or 10 μl foetal bovine serum (BS) (final concentration: 2.5% BS in PBS; preheated at 56° C. for 30 min) or 10 μl human serum (HS) (final concentration: 2.5% HS in PBS), 40 μl of appropriate concentrations of inhibitor (Diprotin A) solution in PBS (for the exact concentrations, see the legend to FIG. 5), CAM-405 (the substrate of the reaction) at […] (final concentration) and PBS to reach a total volume of 400 μl. The pH of the reaction mixture was 7.5, which is virtually identical to the physiological pH of plasma. The reaction was started by the addition of the enzyme or serum and carried out at 37° C. After 5 hr, 100 μl reaction mixture was taken from the Eppendorf tube and added to 200 μl cold methanol to precipitate the proteins. After 10 min standing on ice, the contents of the tubes were centrifuged and the supernatants analysed by HPLC on a reverse phase column (RP-8, Merck Laboratories). CAM-405 was separated from CAM-212 (the product of the reaction) by a gradient of 50 mM sodium phosphate+5 mM heptane sulfonic acid pH 3.2 (Buffer A) and acetonitrile (Buffer B) as follows: Buffer A: 98%+2% Buffer B, 2 min; linear gradient to 20% Buffer. […]

[1] = Table 5, purified CD26 1.5 mUnits, 1 h
[2] = Table 5, purified CD26 1.5 mUnits, 4 h
[3] = Table 5, purified CD26 1.5 mUnits, 24 h
[4] = Table 2, purified CD26 1.5 mUnits, 4 h
[5] = Table 2, purified CD26 1.5 mUnits, 24 h
[6] = Table 2, purified CD26 1.5 mUnits, 1 h

T1 sequence (P27487 whole entry): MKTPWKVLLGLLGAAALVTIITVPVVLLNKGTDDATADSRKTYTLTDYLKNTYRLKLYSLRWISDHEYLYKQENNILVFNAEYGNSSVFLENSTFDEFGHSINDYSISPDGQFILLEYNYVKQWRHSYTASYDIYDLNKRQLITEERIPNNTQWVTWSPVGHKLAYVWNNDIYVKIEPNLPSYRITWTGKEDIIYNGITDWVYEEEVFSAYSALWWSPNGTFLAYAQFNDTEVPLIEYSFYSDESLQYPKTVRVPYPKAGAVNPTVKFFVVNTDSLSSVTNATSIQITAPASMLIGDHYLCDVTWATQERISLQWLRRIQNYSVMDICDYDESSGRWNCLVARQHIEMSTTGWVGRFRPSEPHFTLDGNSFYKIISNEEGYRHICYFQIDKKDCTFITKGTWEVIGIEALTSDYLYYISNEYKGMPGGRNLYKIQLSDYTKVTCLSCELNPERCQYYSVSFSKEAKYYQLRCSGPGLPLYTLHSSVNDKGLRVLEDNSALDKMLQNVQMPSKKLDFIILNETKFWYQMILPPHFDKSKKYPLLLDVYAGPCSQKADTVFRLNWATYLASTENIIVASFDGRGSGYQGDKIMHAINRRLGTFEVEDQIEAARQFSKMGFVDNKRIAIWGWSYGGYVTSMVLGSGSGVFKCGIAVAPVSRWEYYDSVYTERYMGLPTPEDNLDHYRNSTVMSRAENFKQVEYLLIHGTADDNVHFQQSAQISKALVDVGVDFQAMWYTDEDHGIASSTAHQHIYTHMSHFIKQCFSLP

Compound	Conversion / substrate activity with purified CD26, in words	Conversion % to parent compound by purified CD26, 1 h (purified CD26 1.5 mUnits, 1 h) [%]	Conversion % to parent compound by purified CD26, 4 h (purified CD26 1.5 mUnits, 4 h) [%]	Conversion % to parent compound by purified CD26, 24 h (purified CD26 1.5 mUnits, 24 h) [%]	% conversion to parent compound by purified CD26, 4 h [4] [%]	% conversion to parent compound by purified CD26, 24 h [5] [%]	other results
COc1cccc2c1C(=O)c1c(O)c3c(c(O)c1C2=O)CC(O)(C(=O)CO)CC3OC1CC(NC(=O)C2CCCN2C(=O)C(NC(=O)OCC2c3ccccc3-c3ccccc32)C(C)C)C(O)C(C)O1 (stereo not drawn) [CAM-468, Fmoc-Val-Pro-Doxorubicin]	no conversion						% conversion to parent compound by purified CD26, 1 h [1]: 0%; % conversion to parent compound by purified CD26, 4 h [2]: 0%; % conversion to parent compound by purified CD26, 24 h [3]: 0%
H-Val-Pro-Val-NHP-TSAO [CAM-411]		33	60				
CNC(C(=O)N1CCCC1C(=O)NC(C(=O)NCCCn1c(=O)c(C)cn(C2OC(CO[Si](C)(C)C(C)(C)C)C3(OS(=O)(=O)C=C3N)C2O[Si](C)(C)C(C)(C)C)c1=O)C(C)C)C(C)C (stereo not drawn) [CAM-407, Me-NH-Val-Pro-Val-NHP-TSAO]	completely lacked substrate activity	0	0	0			
Cc1cn(C2OC(CO[Si](C)(C)C(C)(C)C)C3(OS(=O)(=O)C=C3N)C2O[Si](C)(C)C(C)(C)C)c(=O)n(CCCNC(=O)[C@@H]2CCCN2C(=O)[C@@H](N)CC(=O)O)c1=O (stereo partly drawn) [CAM-435, H-Asp-Pro-NAP-TSAO]			7.9	30	7.9	30	
Cc1cn(C2OC(CO[Si](C)(C)C(C)(C)C)C3(OS(=O)(=O)C=C3N)C2O[Si](C)(C)C(C)(C)C)c(=O)n(CCCNC(=O)C2CCCN2C(=O)C(NC(=O)C(C)NC(=O)C(N)C(C)C)C(C)C)c1=O (stereo not drawn) [CAM-473, H-Val-Ala-Val-Pro-NAP-TSAO]	occurs faster than with the Val-Ala-NAP-TSAO				54	70	% conversion to parent compound by purified CD26, 1 h [6]: 12%
COc1cccc2c1C(=O)c1c(O)c3c(c(O)c1C2=O)CC(O)(C(=O)CO)CC3OC1CC(NC(=O)C2CCCN2C(=O)C(N)C(C)C)C(O)C(C)O1 (stereo not drawn) [CAM-469, H-Val-Pro-Doxorubicin]	very efficiently converted						% conversion to parent compound by purified CD26, 1 h [1]: 78%; % conversion to parent compound by purified CD26, 4 h [2]: 95%; % conversion to parent compound by purified CD26, 24 h [3]: 97%
Cc1cn(C2OC(CO[Si](C)(C)C(C)(C)C)C3(OS(=O)(=O)C=C3N)C2O[Si](C)(C)C(C)(C)C)c(=O)n(CCCNC(=O)[C@@H]2CCCN2C(=O)[C@@H](N)Cc2ccc(O)cc2)c1=O (stereo partly drawn) [CAM-456, H-Tyr-Pro-NAP-TSAO]		43	66	79			
Cc1cn(C2OC(CO[Si](C)(C)C(C)(C)C)C3(OS(=O)(=O)C=C3N)C2O[Si](C)(C)C(C)(C)C)c(=O)n(CCCNC(=O)[C@@H]2CCCN2C(=O)[C@@H](N)CCCCN)c1=O (stereo partly drawn) [CAM-437, H-Lys-Pro-NAP-TSAO]	completely removed		85	99	85	99	
Cc1cn(C2OC(CO[Si](C)(C)C(C)(C)C)C3(OS(=O)(=O)C=C3N)C2O[Si](C)(C)C(C)(C)C)c(=O)n(CCCNC(=O)[C@@H]2CC(O)CN2C(=O)[C@@H](N)C(C)C)c1=O (stereo partly shown) [CAM-163, H-Val-4HyPro-NAP-TSAO]		4.1	18	53			
Cc1cn(C2OC(CO[Si](C)(C)C(C)(C)C)C3(OS(=O)(=O)C=C3N)C2O[Si](C)(C)C(C)(C)C)c(=O)n(CCCNC(=O)[C@@H](NC(=O)OCc2ccccc2)C(C)C)c1=O (stereo partly shown) [CAM-404, Z-Val-NAP-TSAO]		0	0	0			

Further lines, with some results ahead:

Conversion / substrate activity with purified CD26, in words	Conversion % to parent compound by purified CD26, 1 h (purified CD26 1.5 mUnits, 1 h) [%]	Conversion % to parent compound by purified CD26, 4 h (purified CD26 1.5 mUnits, 4 h) [%]	Conversion % to parent compound by purified CD26, 24 h (purified CD26 1.5 mUnits, 24 h) [%]	% conversion to parent compound by purified CD26, 4 h [4] [%]	% conversion to parent compound by purified CD26, 24 h [5] [%]	Compound	other results
complete conversion within 1 hr						CC(C)[C@H](N)C(=O)N1CCC[C@H]1C(=O)Nc1ccc2ncccc2c1 [CAM-475, H-Val-Pro-6-Aminoquinoline]	% conversion to parent compound by purified CD26, 1 h [1]: 99%; % conversion to parent compound by purified CD26, 4 h [2]: 100%; % conversion to parent compound by purified CD26, 24 h [3]: 100%
	5	20	58			Cc1cn(C2OC(CO[Si](C)(C)C(C)(C)C)C3(OS(=O)(=O)C=C3N)C2O[Si](C)(C)C(C)(C)C)c(=O)n(CCCNC(=O)[C@@H]2CCCN2C(=O)CN)c1=O (stereo partly drawn) [CAM-458, H-Gly-Pro-NAP-TSAO]	
quickly converted				86	88	Cc1cn(C2OC(CO[Si](C)(C)C(C)(C)C)C3(OS(=O)(=O)C=C3N)C2O[Si](C)(C)C(C)(C)C)c(=O)n(CCCNC(=O)C2CCCN2C(=O)C(NC(=O)C2CCCN2C(=O)C(N)C(C)C)C(C)C)c1=O (stereo not drawn) [CAM-467, H-Val-Pro-Val-Pro-NAP-TSAO]	% conversion to parent compound by purified CD26, 1 h [6]: 43%
		0	0			H-Gly-3.4Hypro-NAP-TSAO [CAM-465]	
				0	0	Cc1cn(C2OC(CO[Si](C)(C)C(C)(C)C)C3(OS(=O)(=O)C=C3N)C2O[Si](C)(C)C(C)(C)C)c(=O)n(CCCNC(=O)C2CCCN2C(=O)C(NC(=O)C2CCCN2C(=O)C(NC(=O)OCc2ccccc2)C(C)C)C(C)C)c1=O (stereo not drawn) [CAM-466, Z-Val-Pro-Val-Pro-NAP-TSAO]	% conversion to parent compound by purified CD26, 1 h [6]: 0%
clearly occurs in two steps				6.0	26	Cc1cn(C2OC(CO[Si](C)(C)C(C)(C)C)C3(OS(=O)(=O)C=C3N)C2O[Si](C)(C)C(C)(C)C)c(=O)n(CCCNC(=O)C2CCCN2C(=O)C(CC(=O)O)NC(=O)C2CCCN2C(=O)C(N)CCCCN)c1=O (stereo not drawn) [CAM-477, H-Lys-Pro-Asp-Pro-NAP-TSAO]	% conversion to parent compound by purified CD26, 1 h [6]: 2.1%; % conversion to dipeptide intermediate by purified CD26, 1 h (Table 2 footnote a, purified CD26 1.5 mUnits, 1 h): 88%; % conversion to dipeptide intermediate by purified CD26, 4 h (Table 2 footnote a, purified CD26 1.5 mUnits, 4 h): 86%; % conversion to dipeptide intermediate by purified CD26, 24 h (Table 2 footnote a, purified CD26 1.5 mUnits, 24 h): 74%
		0	0			NH2-Val-HyPro(Bzl)-NAP-TSAO [CAM-462]	
